# US20250189532A1, “1,6-DIYNE COMPOUND, ITS PREPARATION METHOD, AND PRODUCTS OBTAINED USING 1,6-DIYNE COMPOUND AS RAW MATERIAL AND THEIR APPLICATIONS” (Fujian Institute of Research on the Structure of Matter, …, priority 2022, published 2025)
# How the values were obtained:
# Type in all cases: cell-based
# [1] = test system: respiratory chain; experiment: Cell silencing experiment 1: cytc-290 siRNA, live cell imaging with MP-1
# Procedure: Cells are cultured in imaging culture dishes for 6 h and then treated with cytc-290 (designed silent siRNA) or nontargeting RNA. After a certain period of action, live cell imaging is performed under a confocal laser scanning microscope. After 12 hours of ctyc-290 treatment, Hoechst 33342 and MTG staining are good, but about 10% of the cells could not be labeled by MP-1. About 30% of the cells could not be labeled by MP-1 after 18 hours of treatment with ctyc-290. As shown in FIGS. 8A-8E, in contrast, the staining effect of MP-1 in the control group using non-targeted RNA is still good.
# [2] = test system: respiratory chain; experiment: Cell silencing experiment 2: cytc-436 siRNA, live cell imaging with MP-1
# Procedure: The cells are cultured in the imaging culture dish for 6 h, and then treated with cytc-436 (designed silent siRNA) or non-targeting RNA for a certain period of time, and then live cell imaging is performed under a confocal laser scanning microscope. After 6 hours of ctyc-436 treatment, Hoechst 33342 and MTG staining are good, but about 5% of the cells could not be labeled by MP-1. In contrast, the staining effect of MP-1 in the control group using non-targeting RNA is still good.
# [3] = test system: L929 cells (mouse fibroblasts); experiment: Fluorescent labeling of L292/L929 cells by IM probes (confocal imaging); conditions: 30 minutes in the dark
# Procedure: Cell line: L929 cells (mouse fibroblasts).
# Cell culture: Cells are cultured in a CO2 incubator (37° C., 5% CO2) with DMEM medium (penicillin (100 U/mL) and streptomycin (100 μg/mL)).
# (§1) Cell imaging experiment: Cells are cultured on 15 mm grade bottom cell culture dishes. Before labeling the cells with the probe, the culture medium is removed, and the cells are washed twice with Hank's buffer solution to remove the remaining culture medium. Then, 200 μL of probe IM-1 (10 μM) is added to the culture dish, and the cells are incubated in the dark for 30 minutes. The cells are washed twice with Hank's buffer solution to remove any remaining probe, and then 1 mL of Hank's solution is added to the culture dish. The cells are observed under a laser confocal microscope with a 100× objective. The excitation wavelength is 543 nm, and the emission wavelength is 550-600 nm.
# as §1, with “IM-2 (5” for “IM-1 (10”
# Cell imaging experiment: Cells are cultured on 15 mm grade bottom cell culture dishes. Before labeling the cells with the probe, the culture medium is removed, and the cells are washed twice with Hank's buffer solution to remove the remaining culture medium. Then, 200 μL of probe IM-3 (2 μM) is added to the culture dish, and the cells are incubated in the dark for 30 minutes. The cells are washed twice with Hank's buffer solution to remove any remaining probe, and then 1 mL of Hank's solution is added to the culture dish. […]
# [4] = after 12 hours of cytc-290 treatment
# [5] = after 6 hours of cytc-436 treatment
structure (smiles),measurement,setting,value
"CCOc1ccc(-c2nc3ccc(-c4nc5ccc(N6CCN(C)CC6)cc5[nH]4)cc3[nH]2)cc1 [Hoechst 33342, reference compound]",staining,[1]; [4],good
same,staining,[2]; [5],good
c1ccc(C2=NCc3cc4ccccc4cc32)cc1 [IM-1],organelles fluorescently labelled by the probe,"[3]; probe 10 μM, excitation 543 nm, emission 550-600 nm",labels the lysosomes and lysosomal autolysosomes in the cells
CCCCCCCCCCCCCOc1ccc(C2=NCc3c2cc2ccc(Cl)cc2c3-c2ccccc2)cc1 [IM-2],organelles fluorescently labelled by the probe,"[3]; probe 5 μM, excitation 543 nm, emission 550-600 nm",labels the lysosomes and lysosomal autolysosomes in the cells
CCCCCCCCCCCCCOc1ccc(C2=NCc3c2cc2ccc(Cl)cc2c3-c2ccccc2)cc1 [IM-3],organelles fluorescently labelled by the probe,"[3]; probe 2 μM, excitation 488 nm, emission 600-650 nm",labels the lysosomes and lysosomal autolysosomes in the cells
C#CCN(C(C#Cc1ccccc1)c1ccccc1)S(=O)(=O)c1ccccc1 (stereo not shown) [PA-1],cells that could not be labeled by MP-1,[1]; [4],about 10%
same,cells that could not be labeled by MP-1,[1]; after 18 hours of cytc-290 treatment,About 30%
same,staining effect in control group,[1]; control group using non-targeted RNA,still good
same,cells that could not be labeled by MP-1,[2]; [5],about 5%
same,staining effect in control group,[2]; control group using non-targeting RNA,still good
